Data taken from the kinase profiling compilation of Christmann-Franck et al. (2016).

Assays:
Experiment in all cases: radiometric filter-binding kinase assay
[1] = molecular target: CSNK1D (human) (UniProt P48730)
[2] = molecular target: CLK2 (human) (UniProt P49760)
[3] = molecular target: MAP3K7 TAB1 (human) (UniProt Q15750+O43318)
[4] = molecular target: MAPK12 (human) (UniProt P53778)
[5] = molecular target: IKBKE (human) (UniProt Q14164)
[6] = molecular target: PAK7 (human) (UniProt Q9P286)
[7] = molecular target: RPS6KA3 KD1 KD2 (human) (UniProt P51812)
[8] = molecular target: NEK6 (human) (UniProt Q9HC98)
[9] = tested on: SGK1 (human), O00141 [S422D]
Sequence of SGK1 (human), O00141 [S422D] (O00141 whole entry S422D, looked up): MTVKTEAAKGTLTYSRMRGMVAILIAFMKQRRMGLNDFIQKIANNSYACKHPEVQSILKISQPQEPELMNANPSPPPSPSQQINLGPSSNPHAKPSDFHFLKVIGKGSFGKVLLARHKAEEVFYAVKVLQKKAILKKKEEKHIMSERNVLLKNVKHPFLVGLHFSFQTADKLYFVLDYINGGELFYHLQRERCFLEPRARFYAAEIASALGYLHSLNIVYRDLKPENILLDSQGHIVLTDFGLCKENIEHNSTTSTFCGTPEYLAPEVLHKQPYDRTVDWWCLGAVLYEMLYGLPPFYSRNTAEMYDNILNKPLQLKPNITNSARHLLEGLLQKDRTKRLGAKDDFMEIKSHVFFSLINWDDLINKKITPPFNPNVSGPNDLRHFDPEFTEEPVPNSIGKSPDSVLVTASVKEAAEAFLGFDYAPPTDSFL

[10] = molecular target: PIM2 (human) (UniProt Q9P1W9)
[11] = molecular target: PIM3 (human) (UniProt Q86V86)
[12] = molecular target: PKN2 (human) (UniProt Q16513)
[13] = molecular target: RPS6KA5 KD1 KD2 (human) (UniProt O75582)
[14] = molecular target: MAPK3 (human) (UniProt P27361)
[15] = molecular target: PAK6 (human) (UniProt Q9NQU5)
Sequence of PAK6 (human) (Q9NQU5 whole entry, looked up): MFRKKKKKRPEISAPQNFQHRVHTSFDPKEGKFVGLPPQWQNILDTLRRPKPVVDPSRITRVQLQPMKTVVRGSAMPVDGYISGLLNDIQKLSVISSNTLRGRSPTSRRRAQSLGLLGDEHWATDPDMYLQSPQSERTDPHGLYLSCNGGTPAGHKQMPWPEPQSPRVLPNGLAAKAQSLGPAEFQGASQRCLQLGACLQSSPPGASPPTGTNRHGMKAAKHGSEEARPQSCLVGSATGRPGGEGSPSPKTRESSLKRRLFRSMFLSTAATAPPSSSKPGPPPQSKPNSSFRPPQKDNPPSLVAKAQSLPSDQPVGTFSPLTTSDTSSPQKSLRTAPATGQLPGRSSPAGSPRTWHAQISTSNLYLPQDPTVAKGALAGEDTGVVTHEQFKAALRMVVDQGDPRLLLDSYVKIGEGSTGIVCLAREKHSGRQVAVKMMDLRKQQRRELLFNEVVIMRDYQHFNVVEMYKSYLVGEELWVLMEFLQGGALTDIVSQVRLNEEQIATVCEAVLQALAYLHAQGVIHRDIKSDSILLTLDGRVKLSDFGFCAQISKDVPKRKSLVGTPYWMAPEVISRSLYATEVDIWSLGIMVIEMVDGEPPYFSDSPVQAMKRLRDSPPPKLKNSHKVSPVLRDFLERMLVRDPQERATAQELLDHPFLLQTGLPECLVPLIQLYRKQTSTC

[16] = molecular target: MAPKAPK2 (human) (UniProt P49137)
[17] = molecular target: PLK1 (human) (UniProt P53350)
[18] = molecular target: MARK2 (human) (UniProt Q7KZI7)
[19] = molecular target: MAPK15 (human) (UniProt Q8TD08)
[20] = molecular target: RIPK2 (human) (UniProt O43353)
[21] = molecular target: DYRK1A (human) (UniProt Q13627)
[22] = tested on: AKT2 (human), P31751 [S474D]
Sequence of AKT2 (human), P31751 [S474D] (P31751 whole entry S474D, looked up): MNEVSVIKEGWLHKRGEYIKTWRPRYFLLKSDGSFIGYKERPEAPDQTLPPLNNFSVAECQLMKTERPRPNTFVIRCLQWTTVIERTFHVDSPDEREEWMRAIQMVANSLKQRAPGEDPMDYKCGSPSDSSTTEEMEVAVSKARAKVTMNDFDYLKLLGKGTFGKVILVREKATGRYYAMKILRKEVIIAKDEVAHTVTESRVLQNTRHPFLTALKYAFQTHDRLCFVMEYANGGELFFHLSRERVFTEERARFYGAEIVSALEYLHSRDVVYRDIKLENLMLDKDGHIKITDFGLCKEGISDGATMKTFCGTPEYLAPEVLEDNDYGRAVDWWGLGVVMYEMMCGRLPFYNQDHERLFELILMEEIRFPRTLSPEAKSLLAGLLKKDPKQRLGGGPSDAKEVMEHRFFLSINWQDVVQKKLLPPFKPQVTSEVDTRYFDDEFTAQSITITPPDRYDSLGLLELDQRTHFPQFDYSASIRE

[23] = molecular target: NEK2 (human) (UniProt P51955)
Sequence of NEK2 (human) (P51955 whole entry, looked up): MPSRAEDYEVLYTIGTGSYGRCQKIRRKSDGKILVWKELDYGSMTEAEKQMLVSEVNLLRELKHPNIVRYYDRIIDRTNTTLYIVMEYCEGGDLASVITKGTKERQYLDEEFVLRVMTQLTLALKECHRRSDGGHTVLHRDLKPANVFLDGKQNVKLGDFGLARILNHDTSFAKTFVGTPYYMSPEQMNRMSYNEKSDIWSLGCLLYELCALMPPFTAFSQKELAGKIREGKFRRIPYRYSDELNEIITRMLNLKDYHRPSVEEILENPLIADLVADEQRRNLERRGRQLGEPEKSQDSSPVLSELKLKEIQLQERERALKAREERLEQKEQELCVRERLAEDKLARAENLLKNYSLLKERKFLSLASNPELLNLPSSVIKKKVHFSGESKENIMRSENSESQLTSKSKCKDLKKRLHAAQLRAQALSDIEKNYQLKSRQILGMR

[24] = molecular target: MST4 (human) (UniProt Q9P289)
[25] = tested on: PAK2 (human), Q13177 [T402E]
[26] = molecular target: HIPK3 (human) (UniProt Q9H422)
[27] = molecular target: SRPK1 (human) (UniProt Q96SB4)
[28] = molecular target: MARK1 (human) (UniProt Q9P0L2)
Sequence of MARK1 (human) (Q9P0L2 whole entry, looked up): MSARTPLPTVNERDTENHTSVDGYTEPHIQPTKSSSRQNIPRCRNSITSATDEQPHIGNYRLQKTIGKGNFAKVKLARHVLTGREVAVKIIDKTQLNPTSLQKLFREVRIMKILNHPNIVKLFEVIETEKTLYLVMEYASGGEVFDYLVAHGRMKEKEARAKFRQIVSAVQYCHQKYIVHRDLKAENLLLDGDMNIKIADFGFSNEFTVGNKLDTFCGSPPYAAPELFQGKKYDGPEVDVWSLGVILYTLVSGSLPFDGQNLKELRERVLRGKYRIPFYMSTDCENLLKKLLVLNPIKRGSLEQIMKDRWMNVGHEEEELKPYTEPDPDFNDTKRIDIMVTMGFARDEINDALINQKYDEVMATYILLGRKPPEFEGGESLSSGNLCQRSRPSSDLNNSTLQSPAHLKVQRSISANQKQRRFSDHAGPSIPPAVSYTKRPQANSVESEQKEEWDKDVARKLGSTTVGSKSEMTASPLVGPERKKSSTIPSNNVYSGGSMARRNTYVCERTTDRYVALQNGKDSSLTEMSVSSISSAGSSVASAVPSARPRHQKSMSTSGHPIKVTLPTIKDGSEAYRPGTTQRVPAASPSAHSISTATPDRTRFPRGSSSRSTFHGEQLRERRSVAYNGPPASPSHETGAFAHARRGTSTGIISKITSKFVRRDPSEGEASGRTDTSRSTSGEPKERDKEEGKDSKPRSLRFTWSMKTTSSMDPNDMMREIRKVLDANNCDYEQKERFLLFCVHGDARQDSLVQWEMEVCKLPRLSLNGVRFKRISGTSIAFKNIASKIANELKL

[29] = molecular target: CAMKK2 (human) (UniProt Q96RR4)
Sequence of CAMKK2 (human) (Q96RR4 whole entry, looked up): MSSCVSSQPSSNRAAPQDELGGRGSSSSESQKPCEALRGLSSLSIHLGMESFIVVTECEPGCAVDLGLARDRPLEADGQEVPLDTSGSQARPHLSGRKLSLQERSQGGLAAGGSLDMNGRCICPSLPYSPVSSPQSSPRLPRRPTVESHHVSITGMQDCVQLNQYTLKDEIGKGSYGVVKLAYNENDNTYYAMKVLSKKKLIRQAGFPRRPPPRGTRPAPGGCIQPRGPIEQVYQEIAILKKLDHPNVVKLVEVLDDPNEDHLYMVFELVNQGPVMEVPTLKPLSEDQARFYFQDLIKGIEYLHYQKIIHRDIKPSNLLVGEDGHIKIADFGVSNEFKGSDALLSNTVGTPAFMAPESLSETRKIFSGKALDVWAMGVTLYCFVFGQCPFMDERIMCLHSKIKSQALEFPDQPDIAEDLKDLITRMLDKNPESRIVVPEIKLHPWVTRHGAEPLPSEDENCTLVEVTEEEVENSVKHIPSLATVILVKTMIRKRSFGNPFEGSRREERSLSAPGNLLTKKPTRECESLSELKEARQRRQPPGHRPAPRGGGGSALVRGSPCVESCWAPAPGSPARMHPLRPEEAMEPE

[30] = molecular target: EPHA4 (human) (UniProt P54764)
[31] = molecular target: MAPK14 (human) (UniProt Q16539)
[32] = molecular target: IRAK4 (human) (UniProt Q9NWZ3)
[33] = molecular target: IGF1R (human) (UniProt P08069)
[34] = molecular target: PAK4 (human) (UniProt O96013)
[35] = molecular target: CHEK1 (human) (UniProt O14757)

Sequence of MAPK12 (human) (P53778 whole entry, looked up): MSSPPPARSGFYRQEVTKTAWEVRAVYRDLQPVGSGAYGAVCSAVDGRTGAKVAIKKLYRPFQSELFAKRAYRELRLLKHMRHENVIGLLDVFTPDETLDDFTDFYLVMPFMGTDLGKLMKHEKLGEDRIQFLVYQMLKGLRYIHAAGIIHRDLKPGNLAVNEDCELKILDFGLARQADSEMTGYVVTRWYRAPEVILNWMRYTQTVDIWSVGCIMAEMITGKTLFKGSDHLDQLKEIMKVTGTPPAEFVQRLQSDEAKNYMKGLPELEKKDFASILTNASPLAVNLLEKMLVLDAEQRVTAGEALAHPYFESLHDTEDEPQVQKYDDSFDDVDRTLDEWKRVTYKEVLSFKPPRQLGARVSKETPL
Sequence of CSNK1D (human) (P48730 whole entry, looked up): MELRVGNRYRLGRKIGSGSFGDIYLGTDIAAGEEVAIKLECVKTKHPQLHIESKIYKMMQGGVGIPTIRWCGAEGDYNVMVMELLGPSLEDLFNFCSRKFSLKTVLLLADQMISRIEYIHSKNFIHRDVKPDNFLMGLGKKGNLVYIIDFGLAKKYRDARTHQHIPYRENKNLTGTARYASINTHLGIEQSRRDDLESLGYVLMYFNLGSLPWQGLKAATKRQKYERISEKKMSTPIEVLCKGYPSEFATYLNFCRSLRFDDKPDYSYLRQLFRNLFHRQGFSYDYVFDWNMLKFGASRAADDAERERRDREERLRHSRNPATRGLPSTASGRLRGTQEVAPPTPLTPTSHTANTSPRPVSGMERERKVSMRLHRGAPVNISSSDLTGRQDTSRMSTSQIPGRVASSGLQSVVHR
Sequence of CLK2 (human) (P49760 whole entry, looked up): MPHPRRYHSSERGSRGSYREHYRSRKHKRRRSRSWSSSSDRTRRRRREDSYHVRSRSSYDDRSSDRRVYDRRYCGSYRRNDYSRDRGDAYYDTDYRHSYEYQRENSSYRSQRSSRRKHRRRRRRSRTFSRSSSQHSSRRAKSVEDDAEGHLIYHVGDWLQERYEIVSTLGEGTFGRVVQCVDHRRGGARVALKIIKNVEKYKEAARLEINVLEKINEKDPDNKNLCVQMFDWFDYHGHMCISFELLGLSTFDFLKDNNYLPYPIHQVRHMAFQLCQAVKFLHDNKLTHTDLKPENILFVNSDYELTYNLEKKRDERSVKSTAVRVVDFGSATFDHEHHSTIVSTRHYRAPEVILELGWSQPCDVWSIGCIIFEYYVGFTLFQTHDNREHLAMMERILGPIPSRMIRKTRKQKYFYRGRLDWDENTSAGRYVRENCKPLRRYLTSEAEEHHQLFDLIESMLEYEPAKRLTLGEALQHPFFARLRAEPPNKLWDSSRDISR

With `Cc1cccc(-c2nn(C(=S)Nc3ccccc3)cc2-c2ccnc3ccccc23)n1` as the molecule, how does the residual activity ([1]; compound 0.1 µM) read?
The residual activity was 90%.

And the residual activity ([1]; compound 1.0 µM)?
The residual activity was 46%.

What about the residual activity ([2]; compound 0.1 µM) of the same molecule?
Its residual activity is 106%.

And the residual activity ([2]; compound 1.0 µM)?
Its residual activity is 98%.

What about the residual activity ([3]; compound 0.1 µM) of the same molecule?
The residual activity was 99%.

What about the residual activity ([3]; compound 1.0 µM) of the same molecule?
Its residual activity is 81%.

What about the residual activity ([4]; compound 0.1 µM) of the same molecule?
Its residual activity is 102%.

What about the residual activity ([4]; compound 1.0 µM) of the same molecule?
The residual activity was 88%.

What about the residual activity ([5]; compound 0.1 µM) of the same molecule?
The residual activity was 112%.

And the residual activity ([5]; compound 1.0 µM)?
The residual activity was 106%.

What about the residual activity ([6]; compound 0.1 µM) of the same molecule?
Its residual activity is 107%.

And the residual activity ([6]; compound 1.0 µM)?
The residual activity was 102%.

And the residual activity ([7]; compound 0.1 µM)?
The residual activity was 126%.

And the residual activity ([7]; compound 1.0 µM)?
The residual activity was 109%.

What about the residual activity ([8]; compound 0.1 µM) of the same molecule?
The residual activity was 107%.

What about the residual activity ([8]; compound 1.0 µM) of the same molecule?
The residual activity was 100%.

What about the residual activity ([9]; compound 0.1 µM) of the same molecule?
The residual activity was 107%.

What about the residual activity ([9]; compound 1.0 µM) of the same molecule?
Its residual activity is 103%.

And the residual activity ([10]; compound 0.1 µM)?
Its residual activity is 97%.

And the residual activity ([10]; compound 1.0 µM)?
Its residual activity is 94%.

And the residual activity ([11]; compound 0.1 µM)?
Its residual activity is 91%.

And the residual activity ([11]; compound 1.0 µM)?
Its residual activity is 117%.

And the residual activity ([12]; compound 0.1 µM)?
Its residual activity is 105%.

What about the residual activity ([12]; compound 1.0 µM) of the same molecule?
The residual activity was 91%.

What about the residual activity ([13]; compound 0.1 µM) of the same molecule?
The residual activity was 110%.

And the residual activity ([13]; compound 1.0 µM)?
The residual activity was 101%.

What about the residual activity ([14]; compound 0.1 µM) of the same molecule?
Its residual activity is 105%.

What about the residual activity ([14]; compound 1.0 µM) of the same molecule?
The residual activity was 100%.

What about the residual activity ([15]; compound 0.1 µM) of the same molecule?
Its residual activity is 111%.

And the residual activity ([15]; compound 1.0 µM)?
The residual activity was 113%.

What about the residual activity ([16]; compound 0.1 µM) of the same molecule?
Its residual activity is 117%.

What about the residual activity ([16]; compound 1.0 µM) of the same molecule?
Its residual activity is 108%.

And the residual activity ([17]; compound 0.1 µM)?
Its residual activity is 99%.

And the residual activity ([17]; compound 1.0 µM)?
Its residual activity is 106%.

And the residual activity ([18]; compound 0.1 µM)?
Its residual activity is 121%.

And the residual activity ([18]; compound 1.0 µM)?
The residual activity was 110%.

What about the residual activity ([19]; compound 0.1 µM) of the same molecule?
The residual activity was 108%.

And the residual activity ([19]; compound 1.0 µM)?
The residual activity was 93%.

And the residual activity ([20]; compound 0.1 µM)?
The residual activity was 26%.

And the residual activity ([20]; compound 1.0 µM)?
Its residual activity is 9%.

What about the residual activity ([21]; compound 0.1 µM) of the same molecule?
Its residual activity is 109%.

And the residual activity ([21]; compound 1.0 µM)?
Its residual activity is 104%.

And the residual activity ([22]; compound 0.1 µM)?
Its residual activity is 108%.

And the residual activity ([22]; compound 1.0 µM)?
The residual activity was 96%.

What about the residual activity ([23]; compound 0.1 µM) of the same molecule?
The residual activity was 109%.

And the residual activity ([23]; compound 1.0 µM)?
Its residual activity is 92%.

And the residual activity ([24]; compound 0.1 µM)?
Its residual activity is 95%.

And the residual activity ([24]; compound 1.0 µM)?
Its residual activity is 99%.

What about the residual activity ([25]; compound 0.1 µM) of the same molecule?
Its residual activity is 111%.

What about the residual activity ([25]; compound 1.0 µM) of the same molecule?
The residual activity was 101%.

What about the residual activity ([26]; compound 0.1 µM) of the same molecule?
The residual activity was 105%.

What about the residual activity ([26]; compound 1.0 µM) of the same molecule?
Its residual activity is 99%.

What about the residual activity ([27]; compound 0.1 µM) of the same molecule?
The residual activity was 101%.

What about the residual activity ([27]; compound 1.0 µM) of the same molecule?
Its residual activity is 84%.

What about the residual activity ([28]; compound 0.1 µM) of the same molecule?
Its residual activity is 107%.

And the residual activity ([28]; compound 1.0 µM)?
Its residual activity is 113%.

And the residual activity ([29]; compound 0.1 µM)?
Its residual activity is 100%.

And the residual activity ([29]; compound 1.0 µM)?
Its residual activity is 104%.

What about the residual activity ([30]; compound 0.1 µM) of the same molecule?
The residual activity was 108%.

What about the residual activity ([30]; compound 1.0 µM) of the same molecule?
Its residual activity is 98%.

And the residual activity ([31]; compound 0.1 µM)?
The residual activity was 56%.

What about the residual activity ([31]; compound 1.0 µM) of the same molecule?
Its residual activity is 16%.

What about the residual activity ([32]; compound 0.1 µM) of the same molecule?
Its residual activity is 101%.

And the residual activity ([32]; compound 1.0 µM)?
Its residual activity is 99%.

What about the residual activity ([33]; compound 0.1 µM) of the same molecule?
Its residual activity is 97%.

And the residual activity ([33]; compound 1.0 µM)?
Its residual activity is 103%.

What about the residual activity ([34]; compound 0.1 µM) of the same molecule?
Its residual activity is 89%.

And the residual activity ([34]; compound 1.0 µM)?
The residual activity was 93%.

And the residual activity ([35]; compound 0.1 µM)?
The residual activity was 107%.

And the residual activity ([35]; compound 1.0 µM)?
The residual activity was 105%.
